Measurements as given in article PMC3210965 (Chemical research in toxicology, 2011).
In brackets after ≈: the same amount, converted by molar mass. Where two headings read alike, the source gives them in different places.

Columns and labels:
[1] = molecular target: T1, TrxR activity in HeLa cells (Homo sapiens, UniProt Q16881); assay: cell-based; conditions: for inhibition of cellular TrxR activity: 12 h
T1 sequence (Q16881 1-499 isoform Q16881-5): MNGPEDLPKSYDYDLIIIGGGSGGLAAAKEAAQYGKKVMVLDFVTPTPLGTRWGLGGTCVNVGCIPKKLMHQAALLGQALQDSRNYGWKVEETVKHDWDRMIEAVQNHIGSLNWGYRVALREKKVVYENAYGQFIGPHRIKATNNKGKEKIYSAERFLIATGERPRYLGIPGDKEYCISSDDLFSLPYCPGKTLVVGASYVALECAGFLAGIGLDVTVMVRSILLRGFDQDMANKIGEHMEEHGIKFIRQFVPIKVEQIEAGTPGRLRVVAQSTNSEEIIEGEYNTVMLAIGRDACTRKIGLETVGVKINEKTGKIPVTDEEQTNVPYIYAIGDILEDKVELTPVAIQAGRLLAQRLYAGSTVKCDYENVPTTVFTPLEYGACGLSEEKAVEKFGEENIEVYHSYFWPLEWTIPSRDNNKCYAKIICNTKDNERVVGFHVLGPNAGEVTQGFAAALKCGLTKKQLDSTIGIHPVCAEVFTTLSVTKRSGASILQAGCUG

[2] = molecular target: T2, TrxR C-terminus active site Sec and Cys (Rattus norvegicus, UniProt O89049)
T2 sequence (O89049 1-499): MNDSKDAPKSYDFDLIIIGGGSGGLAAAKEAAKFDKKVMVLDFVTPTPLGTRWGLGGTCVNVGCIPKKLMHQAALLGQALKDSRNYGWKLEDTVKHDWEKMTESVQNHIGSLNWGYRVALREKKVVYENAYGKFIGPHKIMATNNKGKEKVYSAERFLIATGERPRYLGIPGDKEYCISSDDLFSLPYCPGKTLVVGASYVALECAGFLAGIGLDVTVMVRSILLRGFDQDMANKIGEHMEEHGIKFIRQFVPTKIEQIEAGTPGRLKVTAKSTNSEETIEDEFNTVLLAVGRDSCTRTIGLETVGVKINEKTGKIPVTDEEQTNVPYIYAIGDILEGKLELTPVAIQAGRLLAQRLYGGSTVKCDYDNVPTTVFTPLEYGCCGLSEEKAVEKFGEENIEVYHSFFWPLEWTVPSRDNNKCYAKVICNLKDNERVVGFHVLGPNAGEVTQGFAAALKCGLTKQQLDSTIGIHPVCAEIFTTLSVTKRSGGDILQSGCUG

[3] = molecular target: T3, rat TrxR (Rattus norvegicus, UniProt O89049)
T3 sequence (O89049 1-499): T2 sequence (O89049 1-499)

[4] = molecular target: T4, Gpx from bovine erythrocytes (Bos taurus, UniProt P00435); type: biochemical
T4 sequence (P00435 1-205): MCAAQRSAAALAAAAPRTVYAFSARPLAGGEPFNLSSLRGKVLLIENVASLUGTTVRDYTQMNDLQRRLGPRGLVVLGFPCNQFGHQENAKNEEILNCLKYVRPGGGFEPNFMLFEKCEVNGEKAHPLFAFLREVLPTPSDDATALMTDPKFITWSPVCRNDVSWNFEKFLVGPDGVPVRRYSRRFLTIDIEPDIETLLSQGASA

[5] = molecular target: T3, rat TrxR; assay: biochemical
[6] = system: HeLa; conditions: three day continuous treatment; cited from earlier work
[7] = system: GR; conditions: cited from earlier work
[8] = system: TrxR; conditions: cited from earlier work
[9] = system: HeLa cells; assay: Cell viability MTS assay; type: cell-based, human; conditions: 2 and 3 μM selenite
[10] = HeLa, read-out: inhibition of cellular TrxR activity

With `CC1=CC2=C(C)C3(CC3)[C@@](C)(O)C(=O)C2=C1` [AF, acylfulvene] the inhibition at 0.2 µM [1, 10] was 20%, the inhibition at 1 µM [1, 10] was 35% and the inhibition at 4 µM [1, 10] was 60%. For the same compound, the “intensity of BIAM label” value ([2]; pH 6.5) was “diminished in intensity”, the BIAM labeling ([2]; pH 8.5) was “almost abolished” and the “reversibility of TrxR inhibition (gel filtration)” value [3] was “irreversible”. The “drug concentration at which an increase in Gpx activity was observed” value (from here on “drug concentration at which an increase”) [4] was at least 20 µM, the IC50 [5] was 7.3 µM and the inhibition at 50 µM ([5]; read-out: TrxR activity inhibited within five minutes) was over 60%.
For `CC1=C(CO)C2=C(C)C3(CC3)[C@@](C)(O)C(=O)C2=C1` [HMAF, hydroxymethylacylfulvene], the “inhibition of cellular TrxR activity” value ([1]; HeLa cells, 0.2 μM) was 20%, the “inhibition of cellular TrxR activity” value ([1]; HeLa cells, 1 μM) was 60% and the “inhibition of cellular TrxR activity” value ([1]; HeLa cells, 4 μM) was “eliminated cellular TrxR activity”. The “IC50, cytotoxicity” value [6] was 0.02 µg/mL (≈ 0.0812 µM), the “intensity of BIAM label” value ([2]; pH 6.5 (free Sec), 5 μM HMAF) was “diminished in intensity” and the BIAM labeling ([2]; pH 8.5 (free Cys and Sec), 25 μM HMAF) was “almost abolished”. For the same compound, the “TrxR activity inhibited within five minutes” value ([3]; 7.5 μM HMAF, pre-reduced TrxR, 25 °C) was “over 60%”, the “reversibility of TrxR inhibition (gel filtration)” value ([3]; 2 h reaction, unbound drug removed by size exclusion column) was “irreversible” and the IC50 ([3]; read-out: IC50, inhibition of DTNB reduction activity of TrxR, NADPH-reduced TrxR (80 nM), 2 h at 25 °C) was 0.38 µM. The “drug concentration at which an increase” value [4] was at least 2 µM and the “type of GR inhibition” value [7] was “irreversible”.
With `NC(=O)CI` [IAA, iodoacetamide] the IC50 ([4]; read-out: IC50, inhibition of Gpx activity) was 2400 µM.
In the case of `O=C(O)CCCc1ccc(N(CCCl)CCCl)cc1` [chlorambucil], the “IC50, TrxR inhibition” value [8] is listed as “micromolar”.
For `CC1=C2C(=C[C@@](C)(CO)[C@@H]2O)C(=O)[C@](C)(O)C12CC2` [illudin S, reference compound], the inhibition at 0.2 µM [1, 10] was 20%, the inhibition at 1 µM [1, 10] was 50% and the “inhibition of TrxR without pre-reduction” value [3] was “no inhibition was observed”. The “drug concentration at which an increase” value [4] was at least 1000 µM, the “effect on Gpx activity” value [4] was “none of the tested drugs caused a decrease in enzyme activity” and the IC50 [5] was 260 µM.
In the case of `N[C@@H](Cc1ccc(N(CCCl)CCCl)cc1)C(=O)O` [melphalan], the “IC50, TrxR inhibition” value [8] is listed as “micromolar”.
For `O=[Se]([O-])[O-].[Na+].[Na+]` [selenite, sodium selenite], the “cytotoxicity of added selenite (cells detached from culture dish)” value [9] was “caused cytotoxicity”.
For `C[S+]([O-])CCCCN=C=S` (stereo not shown) [sulforaphane, reference compound], the “effect in preliminary Se plus sulforaphane TrxR co-induction tests” value ([1]; HeLa cells, data not shown) was “potentially confounding direct inhibitory properties”.
